Source: PubChem BioAssay AID1259407 (Chemical Carcinogenesis Research Information System (CCRIS), 2018)
Calls of active or inactive are those of the source. The rule behind the calls is not given here.

System: CCRIS mutagenicity, Ames/micronucleus/aberration tests
Assay: CCRIS mutagenicity studies

## CC(C)CON=O
Test System: AMES SALMONELLA TYPHIMURIUM, Strain/Indicator: TA98, Metabolic Activation: HAMSTER, LIVER, S-9, AROCLOR 1254 (5 OR 10%), Method: PREINCUBATION
  mutagenic call: inactive; negative
Test System: AMES SALMONELLA TYPHIMURIUM, Strain/Indicator: TA98, Metabolic Activation: HAMSTER, LIVER, S-9, AROCLOR 1254 (30%), Method: PREINCUBATION
  mutagenic call: inactive; negative
Test System: AMES SALMONELLA TYPHIMURIUM, Strain/Indicator: TA98, Metabolic Activation: HAMSTER, LIVER, S-9, AROCLOR 1254, Method: STANDARD PLATE
  mutagenic call: inactive; negative
Test System: AMES SALMONELLA TYPHIMURIUM, Strain/Indicator: TA98, Metabolic Activation: NONE, Method: DESICCATOR
  mutagenic call: inactive; negative
Test System: AMES SALMONELLA TYPHIMURIUM, Strain/Indicator: TA98, Metabolic Activation: NONE, Method: FLUCTUATION (MICROTITER)
  mutagenic call: inactive; negative
Test System: AMES SALMONELLA TYPHIMURIUM, Strain/Indicator: TA98, Metabolic Activation: NONE, Method: PREINCUBATION
  mutagenic call: inactive; negative
Test System: AMES SALMONELLA TYPHIMURIUM, Strain/Indicator: TA98, Metabolic Activation: NONE, Method: STANDARD PLATE
  mutagenic call: inactive; negative
Test System: AMES SALMONELLA TYPHIMURIUM, Strain/Indicator: TA98, Metabolic Activation: RAT LIVER S-9, AROCLOR 1254, Method: FLUCTUATION (MICROTITER)
  mutagenic call: inactive; negative
Test System: AMES SALMONELLA TYPHIMURIUM, Strain/Indicator: TA98, Metabolic Activation: RAT, LIVER, S-9, AROCLOR 1254 (5 OR 10%), Method: PREINCUBATION
  mutagenic call: inactive; negative
Test System: AMES SALMONELLA TYPHIMURIUM, Strain/Indicator: TA98, Metabolic Activation: RAT, LIVER, S-9, AROCLOR 1254 (30%), Method: PREINCUBATION
  mutagenic call: inactive; negative
Test System: AMES SALMONELLA TYPHIMURIUM, Strain/Indicator: TA98, Metabolic Activation: RAT, LIVER, S-9, AROCLOR 1254, Method: DESICCATOR
  mutagenic call: inactive; negative
Test System: AMES SALMONELLA TYPHIMURIUM, Strain/Indicator: TA98, Metabolic Activation: RAT, LIVER, S-9, AROCLOR 1254, Method: STANDARD PLATE
  mutagenic call: inactive; negative
Test System: AMES SALMONELLA TYPHIMURIUM, Strain/Indicator: TA100, Metabolic Activation: HAMSTER, LIVER, S-9, AROCLOR 1254 (10%), Method: PREINCUBATION
  mutagenic call: active; positive
Test System: AMES SALMONELLA TYPHIMURIUM, Strain/Indicator: TA100, Metabolic Activation: HAMSTER, LIVER, S-9, AROCLOR 1254 (30%), Method: PREINCUBATION
  mutagenic call: active; positive
Test System: AMES SALMONELLA TYPHIMURIUM, Strain/Indicator: TA100, Metabolic Activation: HAMSTER, LIVER, S-9, AROCLOR 1254, Method: STANDARD PLATE
  mutagenic call: active; positive
Test System: AMES SALMONELLA TYPHIMURIUM, Strain/Indicator: TA100, Metabolic Activation: NONE, Method: PREINCUBATION
  mutagenic call: inactive; negative
Test System: AMES SALMONELLA TYPHIMURIUM, Strain/Indicator: TA100, Metabolic Activation: NONE, Method: STANDARD PLATE
  mutagenic call: active; positive
Test System: AMES SALMONELLA TYPHIMURIUM, Strain/Indicator: TA100, Metabolic Activation: RAT, LIVER, S-9, AROCLOR 1254 (10%), Method: PREINCUBATION
  mutagenic call: active; positive
Test System: AMES SALMONELLA TYPHIMURIUM, Strain/Indicator: TA100, Metabolic Activation: RAT, LIVER, S-9, AROCLOR 1254 (30%), Method: PREINCUBATION
  mutagenic call: active; positive
Test System: AMES SALMONELLA TYPHIMURIUM, Strain/Indicator: TA100, Metabolic Activation: RAT, LIVER, S-9, AROCLOR 1254, Method: DESICCATOR
  mutagenic call: active; positive
Test System: AMES SALMONELLA TYPHIMURIUM, Strain/Indicator: TA100, Metabolic Activation: RAT, LIVER, S-9, AROCLOR 1254, Method: STANDARD PLATE
  mutagenic call: active; positive
Test System: AMES SALMONELLA TYPHIMURIUM, Strain/Indicator: TA1535, Metabolic Activation: HAMSTER, LIVER, S-9, AROCLOR 1254 (10%), Method: PREINCUBATION
  mutagenic call: active; positive
Test System: AMES SALMONELLA TYPHIMURIUM, Strain/Indicator: TA1535, Metabolic Activation: HAMSTER, LIVER, S-9, AROCLOR 1254 (30%), Method: PREINCUBATION
  mutagenic call: active; positive
Test System: AMES SALMONELLA TYPHIMURIUM, Strain/Indicator: TA1535, Metabolic Activation: HAMSTER, LIVER, S-9, AROCLOR 1254, Method: STANDARD PLATE
  mutagenic call: active; positive
Test System: AMES SALMONELLA TYPHIMURIUM, Strain/Indicator: TA1535, Metabolic Activation: NONE, Method: DESICCATOR
  mutagenic call: active; positive
Test System: AMES SALMONELLA TYPHIMURIUM, Strain/Indicator: TA1535, Metabolic Activation: NONE, Method: STANDARD PLATE
  mutagenic call: active; positive
Test System: AMES SALMONELLA TYPHIMURIUM, Strain/Indicator: TA1535, Metabolic Activation: RAT, LIVER, S-9, AROCLOR 1254 (10%), Method: PREINCUBATION
  mutagenic call: inactive; negative
Test System: AMES SALMONELLA TYPHIMURIUM, Strain/Indicator: TA1535, Metabolic Activation: RAT, LIVER, S-9, AROCLOR 1254 (30%), Method: PREINCUBATION
  mutagenic call: active; positive
Test System: AMES SALMONELLA TYPHIMURIUM, Strain/Indicator: TA1535, Metabolic Activation: RAT, LIVER, S-9, AROCLOR 1254, Method: DESICCATOR
  mutagenic call: active; positive
Test System: AMES SALMONELLA TYPHIMURIUM, Strain/Indicator: TA1535, Metabolic Activation: RAT, LIVER, S-9, AROCLOR 1254, Method: PREINCUBATION
  mutagenic call: active; positive
Test System: AMES SALMONELLA TYPHIMURIUM, Strain/Indicator: TA1535, Metabolic Activation: RAT, LIVER, S-9, AROCLOR 1254, Method: STANDARD PLATE
  mutagenic call: active; positive
Test System: AMES SALMONELLA TYPHIMURIUM, Strain/Indicator: TA1537, Metabolic Activation: HAMSTER, LIVER, S-9, AROCLOR 1254 (10%), Method: PREINCUBATION
  mutagenic call: inactive; negative
Test System: AMES SALMONELLA TYPHIMURIUM, Strain/Indicator: TA1537, Metabolic Activation: HAMSTER, LIVER, S-9, AROCLOR 1254, Method: STANDARD PLATE
  mutagenic call: inactive; negative
Test System: AMES SALMONELLA TYPHIMURIUM, Strain/Indicator: TA1537, Metabolic Activation: NONE, Method: FLUCTUATION (MICROTITER)
  mutagenic call: inactive; negative
Test System: AMES SALMONELLA TYPHIMURIUM, Strain/Indicator: TA1537, Metabolic Activation: NONE, Method: PREINCUBATION
  mutagenic call: inactive; negative
Test System: AMES SALMONELLA TYPHIMURIUM, Strain/Indicator: TA1537, Metabolic Activation: NONE, Method: STANDARD PLATE
  mutagenic call: inactive; negative
Test System: AMES SALMONELLA TYPHIMURIUM, Strain/Indicator: TA1537, Metabolic Activation: RAT LIVER S-9, AROCLOR 1254, Method: FLUCTUATION (MICROTITER)
  mutagenic call: inactive; negative
Test System: AMES SALMONELLA TYPHIMURIUM, Strain/Indicator: TA1537, Metabolic Activation: RAT, LIVER, S-9, AROCLOR 1254 (10%), Method: PREINCUBATION
  mutagenic call: inactive; negative
Test System: AMES SALMONELLA TYPHIMURIUM, Strain/Indicator: TA1537, Metabolic Activation: RAT, LIVER, S-9, AROCLOR 1254, Method: STANDARD PLATE
  mutagenic call: inactive; negative
Test System: AMES SALMONELLA TYPHIMURIUM, Strain/Indicator: TA7001, Metabolic Activation: NONE, Method: FLUCTUATION (MICROTITER)
  mutagenic call: inactive; negative
Test System: AMES SALMONELLA TYPHIMURIUM, Strain/Indicator: TA7001, Metabolic Activation: RAT LIVER S-9, AROCLOR 1254, Method: FLUCTUATION (MICROTITER)
  mutagenic call: inactive; negative
Test System: AMES SALMONELLA TYPHIMURIUM, Strain/Indicator: TA7002, Metabolic Activation: NONE, Method: FLUCTUATION (MICROTITER)
  mutagenic call: inactive; negative
Test System: AMES SALMONELLA TYPHIMURIUM, Strain/Indicator: TA7002, Metabolic Activation: RAT LIVER S-9, AROCLOR 1254, Method: FLUCTUATION (MICROTITER)
  mutagenic call: inactive; negative
Test System: AMES SALMONELLA TYPHIMURIUM, Strain/Indicator: TA7003, Metabolic Activation: NONE, Method: FLUCTUATION (MICROTITER)
  mutagenic call: inactive; negative
Test System: AMES SALMONELLA TYPHIMURIUM, Strain/Indicator: TA7003, Metabolic Activation: RAT LIVER S-9, AROCLOR 1254, Method: FLUCTUATION (MICROTITER)
  mutagenic call: inactive; negative
Test System: AMES SALMONELLA TYPHIMURIUM, Strain/Indicator: TA7004, Metabolic Activation: NONE, Method: FLUCTUATION (MICROTITER)
  mutagenic call: inactive; negative
Test System: AMES SALMONELLA TYPHIMURIUM, Strain/Indicator: TA7004, Metabolic Activation: RAT LIVER S-9, AROCLOR 1254, Method: FLUCTUATION (MICROTITER)
  mutagenic call: inactive; negative
Test System: AMES SALMONELLA TYPHIMURIUM, Strain/Indicator: TA7005, Metabolic Activation: NONE, Method: FLUCTUATION (MICROTITER)
  mutagenic call: inactive; negative
Test System: AMES SALMONELLA TYPHIMURIUM, Strain/Indicator: TA7005, Metabolic Activation: RAT LIVER S-9, AROCLOR 1254, Method: FLUCTUATION (MICROTITER)
  mutagenic call: inactive; negative
Test System: AMES SALMONELLA TYPHIMURIUM, Strain/Indicator: TA7006, Metabolic Activation: NONE, Method: FLUCTUATION (MICROTITER)
  mutagenic call: inactive; negative
Test System: AMES SALMONELLA TYPHIMURIUM, Strain/Indicator: TA7006, Metabolic Activation: RAT LIVER S-9, AROCLOR 1254, Method: FLUCTUATION (MICROTITER)
  mutagenic call: inactive; negative
Test System: MOUSE LYMPHOMA, Strain/Indicator: L5178Y (TK+/TK-), Metabolic Activation: NONE, Method: SUSPENSION/PLATE
  mutagenic call: active; positive
Test System: MOUSE LYMPHOMA, Strain/Indicator: L5178Y (TK+/TK-), Metabolic Activation: RAT, LIVER, S-9, AROCLOR 1254, Method: SUSPENSION/PLATE
  mutagenic call: active; positive
Test System: Mouse lymphoma, Strain/Indicator: L5178Y (tk+/tk-), Metabolic Activation: Rat, Liver, S-9, Aroclor 1254, Method: Suspension/plate
  mutagenic call: active; positive
